Measured values reported in US9850133B2, “Green synthesis of reduced graphene oxide using Nigella sativa seed extract” (KING SAUD UNIVERSITY, priority 2016, dated 2017).

Tests used:
Experiment in all cases: Agar well diffusion assay, zone of inhibition
Type in all cases: cell-based
Conditions in all cases: samples at 100 μl, beyond the well diameter of 6 mm, mean±S.D.
[1] = test system: Streptococcus pneumoniae (RCMB 010011)
Description: (§1) Antimicrobial activity of the reduced graphene oxide (rGO) nanoparticles was determined using the agar well diffusion assay method as described by Holder and Boyce, 1994. Three bacterial strains (two gram positive and one gram negative) and one yeast strain, namely, Bacillis subtilis (RCMB 010067), Staphylococcus pneumoniae (RCMB 010011), Escherichia coli (RCMB 010052), and Aspergillus fumigatus (RCMB 02568) were used for the antimicrobial assay.
(§2) The tested organisms were sub-cultured on nutrient agar medium (Oxoid laboratories, UK) for bacteria and Sabouraud dextrose agar (Oxoid laboratories, UK) for fungi. Ampicillin and Gentamicin were used as positive control for gram positive and gram negative bacteria, respectively, while Amphotericin B was used for fungi. The plates were done in triplicates. Bacterial cultures were incubated at 37° C. for 24 h, while the fungal cultures were incubated at 25-30° C. for 3-7 days. Antimicrobial activity was determined by measuring the zone of inhibition [A. Agwa, (2000)]. Samples were tested at a concentration of 100 μl; Data are expressed in the form of (M±S.D.): mean±standard deviation; Diameter of the inhibition zone (mm) beyond the well diameter of 6 mm; NT: not tested; NA: no activity.

[2] = test system: Bacillis subtilis (RCMB 010068)
Description: as §1, §2

[3] = test system: Escherichia coli (RCMB 010054)
Description: as §1, §2

[4] = test system: Pseudomonas aeruginosa (RCMB 010045)
[5] = test system: Candida albicans (RCMB 05038)
[6] = test system: Aspergillus fumigatus (RCMB 02567)
Description: as §1, §2

With CC1(C)S[C@@H]2[C@H](NC(=O)[C@H](N)c3ccccc3)C(=O)N2[C@H]1C(=O)O [Ampicillin] the “Diameter of the inhibition zone” value [1] was 21.0 ± 1.0 mm and the “Diameter of the inhibition zone” value [2] was 31.3 ± 1.5 mm.

With Gentamicin the “Diameter of the inhibition zone” value [3] was 20.3 ± 0.58 mm and the “Diameter of the inhibition zone” value [4] was 16.0 ± 1.0 mm.

For C[C@@H]1[C@H](O)[C@@H](C)/C=C/C=C/C=C/C=C/C=C/C=C/C=C/[C@H](O[C@@H]2O[C@H](C)[C@@H](O)[C@H](N)[C@@H]2O)C[C@@H]2O[C@](O)(C[C@@H](O)C[C@@H](O)[C@H](O)CC[C@@H](O)C[C@@H](O)CC(=O)O[C@H]1C)C[C@H](O)[C@H]2C(=O)O [Amphotericin B], the “Diameter of the inhibition zone” value [5] was 22.7 ± 1.5 mm and the “Diameter of the inhibition zone” value [6] was 21.7 ± 1.5 mm.
